Each structure is given as a SMILES string.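 In this assay, cells in 96-well plates receive the compound at five concentrations for 48 hours. Endpoints are linearly interpolated between the surrounding concentrations. At the GI50, growth is halved. Definition used: TGI = concentration required for complete inhibition of growth.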

Some test systems named below: A549 NSCLC; ACHN renal; NCI-H226 lung; NCI-H522 lung; OVCAR-3 ovarian; SK-MEL-5 melanoma; UACC-62 melanoma.
Common to all, as to assay: DTP human tumour cell line panel, 48 h

Take `O=c1nc(NC(c2ccccc2)(c2ccccc2)c2ccccc2)ccn1CCNCCn1ccc(NC(c2ccccc2)(c2ccccc2)c2ccccc2)nc1=O`: the TGI in the experiment with A549 NSCLC is above 100 µM; in the experiment on ACHN renal, above 100 µM; in the experiment with NCI-H226 lung, 34.7 µM; with NCI-H522 lung, 21.5 µM; in the experiment on OVCAR-3 ovarian, 58.3 µM; with SK-MEL-5 melanoma it was 20.5 µM. Moreover, the TGI in the experiment on UACC-62 melanoma worked out at 24.1 µM.

As to `CN(C)CCNC(=O)c1cccc2[nH]c(-c3cccnc3)nc12`, the TGI with A549 NSCLC was 43.5 µM; in the experiment on ACHN renal, 37 µM; with NCI-H226 lung, 56.6 µM; with OVCAR-3 ovarian, 56.3 µM; in the experiment on SK-MEL-5 melanoma it was 30.8 µM; in the experiment on UACC-62 melanoma, 34.2 µM.

With `COc1ccc(CC(=O)NCCc2ccc(OC)c(OC)c2)cc1Br`, the TGI in the experiment with A549 NSCLC, with ACHN renal, in the experiment on NCI-H226 lung, with NCI-H522 lung and in the experiment on UACC-62 melanoma was above 100 µM each time.

Consider `Cc1c(C(=O)CC(=O)C(=O)Nc2ccc(Cl)cc2)[n+](=O)c2ccccc2n1[O-]`, for which the TGI in the experiment on A549 NSCLC, in the experiment on ACHN renal, with NCI-H226 lung, in the experiment with NCI-H522 lung, in the experiment on OVCAR-3 ovarian and in the experiment on SK-MEL-5 melanoma was above 100 µM throughout. For the same compound, the TGI in the experiment on UACC-62 melanoma is above 100 µM.

`CCCC/C=C1\CCC(C)(CN(C)C)C1=O` (centres undefined): the TGI in the experiment with A549 NSCLC was above 100 µM; in the experiment on ACHN renal, above 100 µM; in the experiment with NCI-H522 lung, 75.9 µM; in the experiment with OVCAR-3 ovarian, above 100 µM; in the experiment on SK-MEL-5 melanoma, above 100 µM; with UACC-62 melanoma it was above 100 µM.

As to `Cc1ccc(NC(=O)C(=O)CC(=O)c2c(C)n([O-])c3ccccc3[n+]2=O)cc1`, the TGI in the experiment on A549 NSCLC was 87.3 µM; with ACHN renal it was above 100 µM; with NCI-H226 lung, above 100 µM; with NCI-H522 lung, 46.1 µM; in the experiment with OVCAR-3 ovarian, 35.1 µM; in the experiment with SK-MEL-5 melanoma, 78.2 µM. Moreover, the TGI in the experiment on UACC-62 melanoma came to 32.6 µM.

For the compound `O=C1CCCC(=O)N1CCc1c[nH]c2ccccc12`, the TGI with A549 NSCLC, in the experiment on ACHN renal, with NCI-H226 lung, with OVCAR-3 ovarian, with SK-MEL-5 melanoma and in the experiment with UACC-62 melanoma was above 100 µM throughout.

For `Cc1cc(NS(=O)(=O)c2ccc(NC(=O)c3ccc(Cl)c4c(Nc5ccc(S(=O)(=O)N=C(N)N)cc5)c5ccccc5nc34)cc2)no1`, the TGI was above 100 µM in the experiment with ACHN renal, 61.6 µM in the experiment with NCI-H522 lung, 83.7 µM in the experiment with OVCAR-3 ovarian and above 100 µM in the experiment with UACC-62 melanoma.

Turning to `O=C(O)CCSC(=O)Nc1ccccc1F`, the TGI in the experiment with A549 NSCLC, in the experiment with ACHN renal, in the experiment with NCI-H226 lung, with NCI-H522 lung and in the experiment on OVCAR-3 ovarian was above 100 µM throughout.

Turning to `COc1ccc(S(=O)(=O)N/N=C/c2cc(I)cc([N+](=O)[O-])c2O)cc1OC`, the TGI in the experiment on A549 NSCLC is above 100 µM; with ACHN renal, above 100 µM; in the experiment with NCI-H226 lung it was 62.1 µM; with OVCAR-3 ovarian it was 66.3 µM; in the experiment with SK-MEL-5 melanoma it was 38.3 µM; in the experiment with UACC-62 melanoma it was 59.7 µM.

As to `C[C@]12CCC(=O)C(O)=C1CC[C@@H]1C2CC[C@]2(C)Nc3c(cnn3-c3ccccc3)CC12` (some centres undefined), the TGI with A549 NSCLC, with ACHN renal, in the experiment on NCI-H226 lung, with OVCAR-3 ovarian, in the experiment with SK-MEL-5 melanoma and in the experiment with UACC-62 melanoma was above 100 µM in each case.

As for `COc1ccccc1C1c2cc3c(cc2OC(O)(CO)C1C(=O)O)OCO3` (centres undefined) (tested in a mixture with another compound), the TGI in the experiment on A549 NSCLC, in the experiment with ACHN renal, in the experiment with NCI-H226 lung, with OVCAR-3 ovarian, in the experiment with SK-MEL-5 melanoma and with UACC-62 melanoma was above 100 µM throughout.

Consider `C=C1C(=O)OC2C=C(CCC(C)=O)C(C)C(OC(C)=O)CC12` (centres undefined), for which the TGI is 55.4 µM with A549 NSCLC; 19.7 µM with ACHN renal; 32.8 µM in the experiment on NCI-H226 lung; 26 µM in the experiment with OVCAR-3 ovarian; 27.4 µM in the experiment with UACC-62 melanoma.

With `NCCN.NCCN.O=C([O-])CCl.O=C([O-])CCl.[Co+3].[O-][Cl+3]([O-])([O-])[O-]`, the GI50 in the experiment on A549 NSCLC, in the experiment on ACHN renal, in the experiment with NCI-H522 lung, in the experiment with OVCAR-3 ovarian, in the experiment on SK-MEL-5 melanoma and in the experiment on UACC-62 melanoma was above 100 µM throughout. Also, the TGI in the experiment on A549 NSCLC, in the experiment on ACHN renal, with NCI-H522 lung, with OVCAR-3 ovarian, in the experiment on SK-MEL-5 melanoma and in the experiment on UACC-62 melanoma was above 100 µM throughout.

For the compound `O=C(O)CCC(NC(=O)c1ccccc1)C(=O)O` (centres undefined), the TGI in the experiment with A549 NSCLC, with ACHN renal, in the experiment on NCI-H522 lung, in the experiment with OVCAR-3 ovarian, with SK-MEL-5 melanoma and in the experiment on UACC-62 melanoma was above 100 µM in each case.

Source of the values: PubChem BioAssay (NCI).
